Lipid plasma levels and safety data for 1 molecule are collected here from patent US20260373174A1, “THYROID BETA-AGONIST DOSING REGIMENS FOR THE TREATMENT OF X-ALD” (Viking Therapeutics, Inc., priority 2022, published 2026).

The data set is described as follows: previous phase 1 study, single and multiple dose cohorts. The class given is in vivo, human. The settings on record: doses used in this study (20, 40, 60, 80 mg QD, oral); preliminary results from 6 multiple dose cohorts (up to 100 mg) and 7 single dose cohorts (up to 125 mg).

Take `Cc1cc(OCP(=O)(O)O)cc(C)c1Cc1ccc(O)c(Cc2ccccc2)c1` [Compound 1]: the lipid plasma levels result is listed as “lowering of lipid plasma levels” and the safety entry is listed as “without safety issues”.
